Results as given in patent US6506747B1, “Substituted 1-(4-aminophenyl)pyrazoles and their use as anti-inflammatory agents” (Boehringer Ingelheim Pharmaceuticals, Inc., priority 1998, dated 2003).

Tests used:
IL-2 promoter/enhancer = experiment: IL-2 promoter assay (luciferase reporter in Jurkat J.1F/C6 cells); format: cell-based; details: Homo sapiens; J.1F/C6 Jurkat cell line, IL-2 promoter luciferase reporter; read-out: IC50, inhibition of luciferase activity induced by ionomycin and PMA
Excerpt: The IL-2 promoter assay measures transcriptional activation of a luciferase reporter gene which has been placed under control of the IL-2 promoter/enhancer. All the known regulatory features of the IL2gene are contained within a 300 bp sequence immediately upstream of the open reading frame. The region −328 to +35 relative to the transcription start site of the IL-2 gene is obtained by RT-PCR of human genomic DNA and is subcloned into the promoterless luciferase reporter vector pGL2-Basic (Promega). The resulting construct, pIL2P-luc, and a vector containing a neomycin resistance gene, pcDNA/Neo (Invitrogen), are linearized and stably transfected into Jurkat cells (a human T cell line) by electroporation. […] For screening compounds, the cells are pelleted by centrifugation, washed once with PBS, resuspended in RPMI (phenol red-free) containing 5% FBS, and dispensed into 96-well, white microtiter plates (Packard) at 50,000 cells/well. The cells are pre-incubated with compounds (1 μg/ml) for 15 min prior to addition of ionomycin (1 μg/ml) and PMA (10 ng/ml) in a final volume of 100 μl. Following a 5 hr incubation at 37° C. in a humidified incubator, 100 μl of Luc-Lite lysis buffer/luciferase assay buffer (Promega) is added and luminescence measured using a Packard TopCount scintillation counter/luminometer.

| SMILES | melting point [°C] | IC50 (IL-2 promoter/enhancer) [nM] |
| --- | --- | --- |
| O=C(Nc1ccc(-n2nc(C(F)(F)F)cc2C(F)(F)F)cc1)c1cnccn1 [Example 698] | 188 to 189 | – |
| CCc1cc(C(F)(F)F)nn1-c1ccc(NCc2ccc(C)s2)cc1 [Example 1248] | 87 to 89 | – |
| FC(F)(F)c1cc(C(F)(F)F)n(-c2ccc(Nc3nc4ccccc4[nH]3)cc2)n1 [Example 644] | 220 to 222 | – |
| C=CC[C@@H]1/C=C(\C)C[C@H](C)C[C@H](OC)[C@H]2O[C@@](O)(C(=O)C(=O)N3CCCC[C@H]3C(=O)O[C@H](/C(C)=C/[C@@H]3CC[C@@H](O)[C@H](OC)C3)[C@H](C)[C@@H](O)CC1=O)[C@H](C)C[C@@H]2OC [FK506] | – | 0.3 |
| O=C(Nc1ccc(-n2nc(C(F)(F)F)cc2C(F)(F)F)cc1)c1ccnc2ccccc12 [Example 711] | 204 to 205 | – |
| CCc1cc(C(C)C)nn1-c1ccc(NC(=O)c2c(C)noc2C)cc1 [Example 1200] | 173 to 175 | – |
| O=C(Nc1ccc(-n2nc(C(F)(F)F)cc2C(F)(F)F)cc1)c1cnc2ccccc2n1 [Example 712] | 196 | – |
| Cc1cc(C(F)(F)F)nn1-c1ccc(NC(=O)C2CCCC2)cc1 [Example 780] | 176 to 178 | – |
| O=C(Nc1ccc(-n2nc(C(F)(F)F)cc2C(F)(F)F)cc1)C1CCCNC1 (stereo not drawn) [Example 688] | 231 to 233 | – |
| FC(F)(F)c1cc(Cl)n(-c2ccc(Nc3nccc4ccccc34)cc2)n1 [Example 683] | 244 to 254 | – |
| FC(F)(F)c1cc(C(F)(F)F)n(-c2ccc(Nc3ccncn3)cc2)n1 [Example 886] | 218 to 219 | – |
| CN(C)Cc1cc(C(F)(F)F)n(-c2ccc(NC(=O)c3ccc(Cl)cc3)cc2)n1 [Example 1128] | 177 to 178 | – |
| CCc1cc(C(C)C)nn1-c1ccc(NC(=O)c2cnccn2)cc1 [Example 1312] | 169 to 171 | – |
| FC(F)(F)c1cc(C(F)(F)F)n(-c2ccc(NCc3ccc(Cl)cc3)cc2)n1 [Example 548] | 89 to 90 | – |
| CCCCCC(=O)Nc1ccc(-n2nc(C(F)(F)F)cc2C(F)(F)F)cc1 [Example 584] | 107 to 109 | – |
| C[S+]([O-])c1cc(-c2ccco2)nn1-c1ccc(NC(=O)c2ccc(Cl)cc2)cc1 (stereo not drawn) [Example 1101] | 110 | – |
| CCc1cc(C(F)(F)F)nn1-c1ccc(NC(=O)c2c(C)ncn2C)cc1 [Example 1207] | 179 to 182 | – |

Now from value to compound:

| melting point [°C] | IC50 (IL-2 promoter/enhancer) [nM] | SMILES |
| --- | --- | --- |
| 176 to 178 | – | CSc1cc(-c2ccco2)nn1-c1ccc(NC(=O)c2ccc(Cl)cc2)cc1 [Example 1077] |
| 123 to 124 | – | CCc1cc(C(C)C)nn1-c1ccc(Nc2ncccc2C#N)cc1 [Example 1160] |
| 247 | – | N#Cc1ccc(Nc2ccc(-n3nc(C(F)(F)F)cc3C(F)(F)F)cc2)cc1 [Example 864] |
| 93 to 95 | – | CCc1cc(C(F)(F)F)nn1-c1ccc(NCc2sccc2C)cc1 [Example 1247] |
| 243 to 245 | – | O=C(Nc1ccc(-n2nc(C(F)(F)F)cc2C(F)(F)F)cc1)c1ccccc1 [Example 538] |
| 205 to 220 | – | FC(F)(F)c1cc(C(F)(F)F)n(-c2ccc(Nc3nccc4ccccc34)cc2)n1 [Example 648] |
| 185 to 186 | – | O=C(Nc1ccc(-n2nc(C(F)(F)F)cc2C(F)(F)F)cc1)N1CCOCC1 [Example 726] |
| 54 | – | CCNc1ccc(-n2nc(C(F)(F)F)cc2C(F)(F)F)cc1 [Example 613] |
| 87 to 88 | – | CCc1cc(C(C)C)nn1-c1ccc(NCc2c(C)noc2C)cc1 [Example 1201] |
| 175 to 176 | – | CC(=O)Nc1ccc(-n2nc(C(F)(F)F)cc2C(F)(F)F)cc1 [Example 547] |
